How the values were obtained:
Assay type in all cases: cell-based
H358 cells = assay: Cell viability assay (CELLTITER-GLO), H358 cells; conditions: Table 4; 3 days
Description: (§1) MOLM-13 cells, MV-4-11 cells, H23, and H358 cells were independently cultured in RPMI 1640 media supplemented with 10% fetal bovine serum, streptomycin and penicillin. The cells were plated in white walled 96-well plates at 4,000 cells/well. The cells were incubated in DMSO (control) or a compound for 3 days at 37° C. under 5% CO2. A CELLTITER-GLO® reagent (100 μL) was then added to each well. After a 10 min incubation with shaking, luminescence was measured using an ENVISION® multimode plate reader.
In Tables 1 and 2, each compound was tested at 10 μM; and in Table 3, each compound was tested at 1 μM. In Tables 1 to 3, the cell viability values as % DMSO are reported as “A,” “B,” “C,” or “D;” where “A” represents a % viability value of less than 10%; “B” represents a % viability value of no less than 10% and less than 25%; “C” represents a % viability value of no less than 25% and less than 50%; and “D” represents a % viability value of no less than 50%. Compound A is
(§2) IC50 values are summarized in Table 4, where “A” represents an IC50 value of no greater than 1 μM, “B” represents an IC50 value of greater than 1 μM and no greater than 5 μM, “C” represents an IC50 value of greater than 5 μM and no greater than 10 μM, and “D” represents an IC50 value of greater than 10 μM.

H23 cells = assay: Cell viability assay (CELLTITER-GLO), H23 cells; conditions: Table 4; 3 days
Description: as §1, §2

MOLM-13 cells = assay: Cell viability assay (CELLTITER-GLO), MOLM-13 cells; conditions: Homo sapiens, MOLM-13, 72 h, 3 days, read-out: Effect on MOLM-13 cell viability (% DMSO); for viability at 1 µM: Table 3, compound at 1 μM; for viability at 10 µM: Table 2, compound at 10 μM
Description: as §1
In Tables 1 and 2, each compound was tested at 10 μM; and in Table 3, each compound was tested at 1 μM. In Tables 1 to 3, the cell viability values as % DMSO are reported as “A,” “B,” “C,” or “D;” where “A” represents a % viability value of less than 10%; “B” represents a % viability value of no less than 10% and less than 25%; “C” represents a % viability value of no less than 25% and less than 50%; and “D” represents a % viability value of no less than 50%. Compound A is […]

Inhibition of H358 cells, IC50 (class) (H358 cells)	Structure (SMILES)	Inhibition of H23 cells, IC50 (class) (H23 cells)	viability at 10 µM (MOLM-13 cells)	also measured
C′	O=C1CCC(N2Cc3c(cc(F)cc3C3CCN(CCCCCCCOc4cccc(F)c4-c4c(Cl)cc5c(N6CCN(C(=O)C7CCOCC7)CC6)ncnc5c4F)CC3)C2=O)C(=O)N1 (stereo not drawn) [Compound 52, 3-(4-(1-(7-(2-(6-Chloro-8-fluoro-4-(4-(tetrahydro-2H-pyran-4-carbonyl)piperazin-1-yl)quinazolin-7-yl)-3-fluorophenoxy)heptyl)piperidin-4-yl)-6-fluoro-1-oxoisoindolin-2-yl)piperidine-2,6-dione]	B′	–	–
D′	CCC(=O)N1CCN(c2ncnc3c(F)c(-c4c(F)cccc4OCCCCCN4CCC(c5cc(F)cc6c5CN(C5CCC(=O)NC5=O)C6=O)CC4)c(Cl)cc23)CC1 (stereo not drawn) [Compound 60, 3-(4-(1-(5-(2-(6-Chloro-8-fluoro-4-(4-propionylpiperazin-1-yl)quinazolin-7-yl)-3-fluorophenoxy)pentyl)piperidin-4-yl)-6-fluoro-1-oxoisoindolin-2-yl)piperidine-2,6-dione]	C′	–	–
C′	O=C1CCC(N2Cc3c(cc(F)cc3C3CCN(CCCCCCCOc4cccc(F)c4-c4c(Cl)cc5c(N6CCN(C(=O)C7CCOC7)CC6)ncnc5c4F)CC3)C2=O)C(=O)N1 (stereo not drawn) [Compound 54, 3-(4-(1-(7-(2-(6-Chloro-8-fluoro-4-(4-(tetrahydrofuran-3-carbonyl)piperazin-1-yl)quinazolin-7-yl)-3-fluorophenoxy)heptyl)piperidin-4-yl)-6-fluoro-1-oxoisoindolin-2-yl)piperidine-2,6-dione]	B′	–	–
B′	C=C(Cl)C(=O)N1CCN(c2nc(OC[C@@H]3CCCN3C)nc3c(F)c(-c4c(F)cccc4OCCCCCCCN4CCC(c5cc6c(cc5F)C(=O)N(C5CCC(=O)NC5=O)C6)CC4)c(Cl)cc23)C[C@H]1CC#N (stereo partly drawn) [Compound 132, 2-((2R)-4-(6-Chloro-7-(2-((7-(4-(2-(2,6-dioxopiperidin-3-yl)-6-fluoro-1-oxoisoindolin-5-yl)piperidin-1-yl)heptyl)oxy)-6-fluorophenyl)-8-fluoro-2-(((S)-1-methylpyrrolidin-2-yl)methoxy)quinazolin-4-yl)-1-(2-chloroacryloyl)piperazin-2-yl)acetonitrile]	B′	–	–
A′	C=C(Cl)C(=O)N1CCN(c2ncnc3c(F)c(-c4c(F)cccc4OCCc4ccc(CCN5CCC(c6cc(F)cc7c6CN(C6CCC(=O)NC6=O)C7=O)CC5)cc4)c(Cl)cc23)C[C@H]1CC#N (stereo partly drawn) [Compound 131, 2-((2R)-4-(6-Chloro-7-(2-(4-(2-(4-(2-(2,6-dioxopiperidin-3-yl)-6-fluoro-1-oxoisoindolin-4-yl)piperidin-1-yl)ethyl)phenethoxy)-6-fluorophenyl)-8-fluoroquinazolin-4-yl)-1-(2-chloroacryloyl)piperazin-2-yl)acetonitrile]	A′	–	–
–	CCC(=O)N1CCN(c2ncnc3c(F)c(-c4c(F)cccc4OCCOCCOCCC(=O)NCCNc4cccc5c4C(=O)N(C4CCC(=O)NC4=O)C5=O)c(Cl)cc23)CC1 (stereo not drawn) [Compound 6, 3-(2-(2-(2-(6-Chloro-8-fluoro-4-(4-propionylpiperazin-1-yl)quinazolin-7-yl)-3-fluorophenoxy)ethoxy)ethoxy)-N-(2-((2-(2,6-dioxopiperidin-3-yl)-1,3-dioxoisoindolin-4-yl)amino)ethyl)propanamide]	–	–	viability at 1 µM (MOLM-13 cells): ≥ 50%
–	C=CC(=O)N1CCN(c2ncnc3c(F)c(-c4c(F)cccc4OCCCCCCCCNc4cccc5c4C(=O)N(C4CCC(=O)NC4=O)C5=O)c(Cl)cc23)CC1 (stereo not drawn) [Compound 34, 4-((8-(2-(4-(4-Acryloylpiperazin-1-yl)-6-chloro-8-fluoroquinazolin-7-yl)-3-fluorophenoxy)octyl)amino)-2-(2,6-dioxopiperidin-3-yl)isoindoline-1,3-dione]	–	10 to 25%	–
–	CCC(=O)N1CC(c2nc3ccc(-c4cc(O)cc5ccccc45)cc3c(=O)n2CCOCCNCc2ccc(OCc3scc4c3CN(C3CCC(=O)NC3=O)C4=O)cc2)C1 (stereo not drawn) [Compound 26, 3-(1-((4-(((2-(2-(6-(3-Hydroxynaphthalen-1-yl)-4-oxo-2-(1-propionylazetidin-3-yl)quinazolin-3(4H)-yl)ethoxy)ethyl)amino)methyl)phenoxy)methyl)-4-oxo-4H-thieno[3,4-c]pyrrol-5(6H)-yl)piperidine-2,6-dione]	–	≥ 50%	–
–	C=CC(=O)N1CCN(c2ncnc3c(F)c(-c4c(F)cccc4OCCOCCOCCC(=O)NCCOc4cccc5c4C(=O)N(C4CCC(=O)NC4=O)C5=O)c(Cl)cc23)CC1 (stereo not drawn) [Compound 3, 3-(2-(2-(2-(4-(4-Acryloylpiperazin-1-yl)-6-chloro-8-fluoroquinazolin-7-yl)-3-fluorophenoxy)ethoxy)ethoxy)-N-(2-((2-(2,6-dioxopiperidin-3-yl)-1,3-dioxoisoindolin-4-yl)oxy)ethyl)propanamide]	–	–	viability at 1 µM (MOLM-13 cells): ≥ 50%
–	C=CC(=O)N1CC(c2nc3ccc(-c4cc(O)cc5ccccc45)cc3c(=O)n2CCNCc2ccc(OCc3scc4c3CN([C@H]3CCC(=O)NC3=O)C4=O)cc2)C1 [Compound 15, (S)-3-(1-((4-(((2-(2-(1-Acryloylazetidin-3-yl)-6-(3-hydroxynaphthalen-1-yl)-4-oxoquinazolin-3(4H)-yl)ethyl)amino)methyl)phenoxy)methyl)-4-oxo-4H-thieno[3,4-c]pyrrol-5(6H)-yl)piperidine-2,6-dione]	–	≥ 50%	–
–	C=CC(=O)N1CC(c2nc3ccc(-c4cc(O)cc5ccccc45)cc3c(=O)n2CCOCCOCCNCc2ccc(OCc3scc4c3CN([C@H]3CCC(=O)NC3=O)C4=O)cc2)C1 [Compound 14, (S)-3-(1-((4-(((2-(2-(2-(2-(1-Acryloylazetidin-3-yl)-6-(3-hydroxynaphthalen-1-yl)-4-oxoquinazolin-3(4H)-yl)ethoxy)ethoxy)ethyl)amino)methyl)phenoxy)methyl)-4-oxo-4H-thieno[3,4-c]pyrrol-5(6H)-yl)piperidine-2,6-dione]	–	≥ 50%	–
–	CCC(=O)N1CC(N2Cc3ccc(-c4cc(O)cc5ccccc45)cc3N(CCOCCOCCOCCNc3cccc4c3C(=O)N(C3CCC(=O)NC3=O)C4=O)C2=O)C1 (stereo not drawn) [Compound 12, 2-(2,6-Dioxopiperidin-3-yl)-4-((2-(2-(2-(2-(7-(3-hydroxynaphthalen-1-yl)-2-oxo-3-(1-propionylazetidin-3-yl)-3,4-dihydroquinazolin-1(2H)-yl)ethoxy)ethoxy)ethoxy)ethyl)amino)-isoindoline-1,3-dione]	–	≥ 50%	–
–	NC(=O)N1CCN(c2ncnc3c(F)c(-c4c(F)cccc4OCCOCCOCCOCCNc4cccc5c4C(=O)N(C4CCC(=O)NC4=O)C5=O)c(Cl)cc23)CC1 (stereo not drawn) [Compound 32, 4-(6-Chloro-7-(2-(2-(2-(2-(2-((2-(2,6-dioxopiperidin-3-yl)-1,3-dioxoisoindolin-4-yl)amino)ethoxy)ethoxy)ethoxy)ethoxy)-6-fluorophenyl)-8-fluoroquinazolin-4-yl)piperazine-1-carboxamide]	–	≥ 50%	–
–	CCC(=O)N1CCN(c2ncnc3c(F)c(-c4c(F)cccc4OCCCCCCCNCc4ccc(OCc5scc6c5CN([C@H]5CCC(=O)NC5=O)C6=O)cc4)c(Cl)cc23)CC1 [Compound 25, (3S)-3-(1-((4-(((7-(2-(6-Chloro-8-fluoro-4-(4-propionylpiperazin-1-yl)quinazolin-7-yl)-3-fluorophenoxy)heptyl)amino)methyl)phenoxy)methyl)-4-oxo-4H-thieno[3,4-c]pyrrol-5(6H)-yl)piperidine-2,6-dione]	–	< 10%	–
–	C=CC(=O)N1CCN(c2ncnc3c(F)c(-c4c(O)cccc4F)c(Cl)cc23)C(CC(=O)NCCCCCNC(=O)NCc2cc3c(s2)C(=O)N(C2CCC(=O)NC2=O)C3)C1 (stereo not drawn) [Compound 13, 2-(4-Acryloyl-1-(6-chloro-8-fluoro-7-(2-fluoro-6-hydroxyphenyl)quinazolin-4-yl)piperazin-2-yl)-N-(5-(3-((5-(2,6-dioxopiperidin-3-yl)-6-oxo-5,6-dihydro-4H-thieno[2,3-c]pyrrol-2-yl)methyl)ureido)pentyl)acetamide]	–	≥ 50%	–
–	C=CC(=O)N1CCN(c2ncnc3c(F)c(-c4c(F)cccc4OCCOCCOCCC(=O)NCCNc4cccc5c4CN(C4CCC(=O)NC4=O)C5=O)c(Cl)cc23)CC1 (stereo not drawn) [Compound 29, 3-(2-(2-(2-(4-(4-Acryloylpiperazin-1-yl)-6-chloro-8-fluoroquinazolin-7-yl)-3-fluorophenoxy)ethoxy)ethoxy)-N-(2-((2-(2,6-dioxopiperidin-3-yl)-1-oxoisoindolin-4-yl)amino)ethyl)propanamide]	–	< 10%	–
